In US5233062A, “Antibiotic eicosenoic acids” (Merck & Co., Inc., priority 1992, dated 1993):

Legend:
Test in all cases: antifungal disc diffusion assay
Type in all cases: cell-based
[1] = system: Candida pseudotropicalis
Description: (§1) The antifungal activity of the compounds may be detected in an antifungal assay employing disc diffusion methods against a panel of representative yeasts, filamentous fungi (molds) and bacteria.
(§2) For carrying out the assay, seeded assay plates are prepared in the following manner according to the type of assay strain.
(§3) Inocula for yeasts and Streptomyces strains are prepared from overnight broth cultures then diluted into potato dextrose […] to a final concentration of either 40 percent or 70 percent transmission at 660 nm.
(§4) The seeded agar media thus prepared are dispensed into Petri dishes for assays (11 milliliters per dish).
(§5) The samples to be tested for production of antifungal agent are applied to 6.2 mm. filter paper discs (25 microliter/disc) and air dried at 24° C. When the sample to be tested is crude broth, it may be centrifuged prior to application. The discs bearing the material to be tested are then applied employing sterile conditions to be seeded assay plates and the sample rewet with 25 percent sterile aqueous dimethysulfoxide (25 μl/disc). The assay plates are then incubated at either 28° C. or 37° C. for 24 hours.
(§6) Following incubation, the inhibition zones are measured and recorded. The measurements are made from the extreme edge where growth differs from the background zone. The zones are noted as to appearance as fuzzy edge and clear center, hazy throughout, slightly hazy, very hazy or ringed.

[2] = system: Candida neoformans
Description: as §1, §2, §3, §4, §5, §6

[3] = system: Candida parapsilosis
Description: as §1, §2, §3, §4, §5, §6

[4] = system: Ceratocystis ulmi; conditions: filamentous fungus Ceratocystis ulmi
Description: as §1, §2
(§7) Inocula for filamentous fungi are prepared by scraping the surface of stock plates maintained on potato dextrose agar with a moistened sterile dacron swab. The spores and mycelia are then suspended in 10 milliliters of sterile potato dextrose broth and adjusted to 70 percent transmission at 660 nm.
as §4, §5
(§8) Following incubation, the inhibition zones are measured and recorded. The measurements are made from the extreme edge where growth differs from the background zone. […]

[5] = system: Alternaria solani; conditions: filamentous fungus Alternaria solani
Description: as §1, §2, §7, §4, §5, §8

[6] = system: Candida albicans
Description: as §1, §2, §3
(§9) For strains of Candida albicans and Saccharomyces cerevisiae, sterile saline is employed in place of potato dextrose broth. Assay plates are prepared by diluting the inoculum into appropriate molten agar medium, cooled to 45° C. to obtain a final concentration of 4 percent.
as §4, §5, §6

[7] = system: Cryptococous neoformans
Description: as §1, §2, §3, §4, §5, §6

[8] = system: Saccharomyces cerevisiae
Description: as §1, §2, §3, §9, §4, §5, §6

Row | Structure (SMILES) | antifungal activity [1] | antifungal activity [2] | antifungal activity [3] | antifungal activity [4] | antifungal activity [5] | antifungal activity [6] | antifungal activity [7] | antifungal activity [8]
1 | CCCCCCC(=O)CCCCCC/C=C/C(O)C(O)C(O)C(N)(CO)C(=O)O (stereo not drawn) [Compound IA] | active | active | active | very strong antifungal activity | very strong antifungal activity | active |  | 
2 | CCCCCCC(=O)CCCCCC/C=C/C(O)C(O)C(O)C(C)(N)C(=O)O (stereo not drawn) [Compound IB] |  |  |  |  |  | active | active | active
